In PubChem BioAssay (NCI):
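Dose response: 5 concentrations. Exposure: 48 h. Format: 96-well plates. Endpoint: linear interpolation; highest concentration if not reached. The concentration for 50% growth inhibition is given as GI50. TGI: concentration producing complete growth inhibition.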

What was measured:
Assay in all cases: NCI-60 cell line screen, 48 h
SK-MEL-2 melanoma = test system: SK-MEL-2 melanoma
HS 578T breast = test system: HS 578T breast
BT-549 breast = test system: BT-549 breast
SN12C renal = test system: SN12C renal
COLO 205 colon = test system: COLO 205 colon
RPMI-8226 leukemia = test system: RPMI-8226 leukemia
M14 melanoma = test system: M14 melanoma
HOP-62 NSCLC = test system: HOP-62 NSCLC
ACHN renal = test system: ACHN renal
PC-3 prostate = test system: PC-3 prostate
MCF7 breast = test system: MCF7 breast
SK-MEL-28 melanoma = test system: SK-MEL-28 melanoma
HCC-2998 colon = test system: HCC-2998 colon
NCI-H226 lung = test system: NCI-H226 lung
SF-539 CNS = test system: SF-539 CNS
HOP-92 NSCLC = test system: HOP-92 NSCLC
OVCAR-5 ovarian = test system: OVCAR-5 ovarian
UACC-257 melanoma = test system: UACC-257 melanoma
MALME-3M melanoma = test system: MALME-3M melanoma
UO-31 renal = test system: UO-31 renal
HCT-15 colon = test system: HCT-15 colon
HL-60(TB) leukemia = test system: HL-60(TB) leukemia
HT29 colon = test system: HT29 colon
MDA-MB-231 breast = test system: MDA-MB-231 breast
CAKI-1 renal = test system: CAKI-1 renal
786-0 renal = test system: 786-0 renal
EKVX NSCLC = test system: EKVX NSCLC
U251 CNS = test system: U251 CNS
K-562 leukemia = test system: K-562 leukemia
A549 NSCLC = test system: A549 NSCLC
SW-620 colon = test system: SW-620 colon
SF-268 CNS = test system: SF-268 CNS
DU-145 prostate = test system: DU-145 prostate
OVCAR-4 ovarian = test system: OVCAR-4 ovarian
MDA-MB-435 = test system: MDA-MB-435
OVCAR-3 ovarian = test system: OVCAR-3 ovarian
HCT-116 colon = test system: HCT-116 colon
NCI/ADR-RES ovarian = test system: NCI/ADR-RES ovarian
T-47D breast = test system: T-47D breast
SK-MEL-5 melanoma = test system: SK-MEL-5 melanoma
SNB-75 CNS = test system: SNB-75 CNS
RXF 393 renal = test system: RXF 393 renal
SF-295 CNS = test system: SF-295 CNS
KM12 colon = test system: KM12 colon
OVCAR-8 ovarian = test system: OVCAR-8 ovarian
MOLT-4 leukemia = test system: MOLT-4 leukemia
NCI-H460 lung = test system: NCI-H460 lung
NCI-H522 lung = test system: NCI-H522 lung
NCI-H23 lung = test system: NCI-H23 lung
CCRF-CEM leukemia = test system: CCRF-CEM leukemia
SR leukemia = test system: SR leukemia
A498 renal = test system: A498 renal
LOX IMVI melanoma = test system: LOX IMVI melanoma
UACC-62 melanoma = test system: UACC-62 melanoma

With `COC(=O)c1c2c(c(C)[n+]([O-])c1C)C(=O)C(NCc1ccc(F)c(F)c1)=CC2=O` the GI50 (SK-MEL-2 melanoma) was 2160 nM, the TGI (SK-MEL-2 melanoma) was 6730 nM and the GI50 (HS 578T breast) was 2760 nM. The TGI (HS 578T breast) was 11900 nM, the GI50 (BT-549 breast) was 2140 nM and the TGI (BT-549 breast) was 5860 nM. It also gave a GI50 (SN12C renal) of 1730 nM, a TGI (SN12C renal) of 4320 nM and a GI50 (COLO 205 colon) of 673 nM. The TGI (COLO 205 colon) was 2100 nM, the GI50 (RPMI-8226 leukemia) was 2050 nM and the TGI (RPMI-8226 leukemia) was 5600 nM. It also gave a GI50 (M14 melanoma) of 1640 nM, a TGI (M14 melanoma) of 3600 nM and a GI50 (HOP-62 NSCLC) of 2450 nM. For the same compound, the TGI (HOP-62 NSCLC) was 7470 nM, the GI50 (ACHN renal) was 2480 nM and the TGI (ACHN renal) was 7680 nM. The GI50 (PC-3 prostate) was 1910 nM, the TGI (PC-3 prostate) was 7750 nM and the GI50 (MCF7 breast) was 1480 nM. For the same compound, the TGI (MCF7 breast) was 3360 nM, the GI50 (SK-MEL-28 melanoma) was 4110 nM and the TGI (SK-MEL-28 melanoma) was 13800 nM. It also gave a GI50 (HCC-2998 colon) of 2260 nM, a TGI (HCC-2998 colon) of 5350 nM and a GI50 (NCI-H226 lung) of 2690 nM. It also gave a TGI (NCI-H226 lung) of 8140 nM, a GI50 (SF-539 CNS) of 1920 nM and a TGI (SF-539 CNS) of 4120 nM. It also gave a GI50 (HOP-92 NSCLC) of 2810 nM, a TGI (HOP-92 NSCLC) of 6430 nM and a GI50 (OVCAR-5 ovarian) of 2500 nM. It also gave a TGI (OVCAR-5 ovarian) of 6590 nM, a GI50 (UACC-257 melanoma) of 1130 nM and a TGI (UACC-257 melanoma) of 2960 nM. It also gave a GI50 (MALME-3M melanoma) of 238 nM, a TGI (MALME-3M melanoma) of 874 nM and a GI50 (UO-31 renal) of 1940 nM. It also gave a TGI (UO-31 renal) of 6900 nM, a GI50 (HCT-15 colon) of 1600 nM and a TGI (HCT-15 colon) of 4020 nM. For the same compound, the GI50 (HL-60(TB) leukemia) was 1860 nM, the TGI (HL-60(TB) leukemia) was 4400 nM and the GI50 (HT29 colon) was 1150 nM. It also gave a TGI (HT29 colon) of 7610 nM, a GI50 (MDA-MB-231 breast) of 1750 nM and a TGI (MDA-MB-231 breast) of 6090 nM. The GI50 (CAKI-1 renal) was 2390 nM, the TGI (CAKI-1 renal) was 10500 nM and the GI50 (786-0 renal) was 3170 nM. It also gave a TGI (786-0 renal) of 12700 nM, a GI50 (EKVX NSCLC) of 1840 nM and a TGI (EKVX NSCLC) of 4390 nM. The GI50 (U251 CNS) was 2060 nM, the TGI (U251 CNS) was 5850 nM and the GI50 (K-562 leukemia) was 2230 nM. For the same compound, the TGI (K-562 leukemia) was 9590 nM, the GI50 (A549 NSCLC) was 2100 nM and the TGI (A549 NSCLC) was 6170 nM. The GI50 (SW-620 colon) was 2170 nM, the TGI (SW-620 colon) was 6890 nM and the GI50 (SF-268 CNS) was 2310 nM. The TGI (SF-268 CNS) was 7470 nM, the GI50 (DU-145 prostate) was 2660 nM and the TGI (DU-145 prostate) was 7610 nM. The GI50 (OVCAR-4 ovarian) was 1030 nM, the TGI (OVCAR-4 ovarian) was 2220 nM and the GI50 (MDA-MB-435) was 1700 nM. The TGI (MDA-MB-435) was 3150 nM, the GI50 (OVCAR-3 ovarian) was 333 nM and the TGI (OVCAR-3 ovarian) was 1090 nM. The GI50 (HCT-116 colon) was 1650 nM, the TGI (HCT-116 colon) was 5710 nM and the GI50 (NCI/ADR-RES ovarian) was 2300 nM. The TGI (NCI/ADR-RES ovarian) was 6860 nM, the GI50 (T-47D breast) was 1750 nM and the TGI (T-47D breast) was 4330 nM. The GI50 (SK-MEL-5 melanoma) was 1140 nM, the TGI (SK-MEL-5 melanoma) was 2380 nM and the GI50 (SNB-75 CNS) was 2150 nM. It also gave a TGI (SNB-75 CNS) of 7580 nM, a GI50 (RXF 393 renal) of 2150 nM and a TGI (RXF 393 renal) of 5960 nM. For the same compound, the GI50 (SF-295 CNS) was 1880 nM, the TGI (SF-295 CNS) was 4640 nM and the GI50 (KM12 colon) was 2160 nM. The TGI (KM12 colon) was 8150 nM, the GI50 (OVCAR-8 ovarian) was 1960 nM and the TGI (OVCAR-8 ovarian) was 7970 nM. It also gave a GI50 (MOLT-4 leukemia) of 2440 nM, a TGI (MOLT-4 leukemia) of 4860 nM and a GI50 (NCI-H460 lung) of 2130 nM. It also gave a TGI (NCI-H460 lung) of 10200 nM, a GI50 (NCI-H522 lung) of 1570 nM and a TGI (NCI-H522 lung) of 3750 nM. For the same compound, the GI50 (NCI-H23 lung) was 1870 nM, the TGI (NCI-H23 lung) was 4520 nM and the GI50 (CCRF-CEM leukemia) was 1720 nM. It also gave a TGI (CCRF-CEM leukemia) of 4570 nM, a GI50 (SR leukemia) of 1620 nM and a TGI (SR leukemia) of 6240 nM. It also gave a GI50 (A498 renal) of 1340 nM, a TGI (A498 renal) of 5650 nM and a GI50 (LOX IMVI melanoma) of 1980 nM. It also gave a TGI (LOX IMVI melanoma) of 6760 nM, a GI50 (UACC-62 melanoma) of 1530 nM and a TGI (UACC-62 melanoma) of 3350 nM.
